Our source for the EC50 values is patent US8642774B2, “Compounds” (Boehringer Ingelheim International GmbH, priority 2011, dated 2014).

SMILES strings stand for the structures.

As a reminder, the EC50 is the concentration at which the effect is half-maximal.

The target in this experiment is T1, human recombinant mGluR5 (Homo sapiens, UniProt P41594).
T1 construct: expressed in transfected cells; host or cells: HEK 293 cell line, cultured with tetracycline, hygromycin and geneticin; tetracycline is withdrawn 3-7 days before the assay
T1 sequence (P41594 21-1212): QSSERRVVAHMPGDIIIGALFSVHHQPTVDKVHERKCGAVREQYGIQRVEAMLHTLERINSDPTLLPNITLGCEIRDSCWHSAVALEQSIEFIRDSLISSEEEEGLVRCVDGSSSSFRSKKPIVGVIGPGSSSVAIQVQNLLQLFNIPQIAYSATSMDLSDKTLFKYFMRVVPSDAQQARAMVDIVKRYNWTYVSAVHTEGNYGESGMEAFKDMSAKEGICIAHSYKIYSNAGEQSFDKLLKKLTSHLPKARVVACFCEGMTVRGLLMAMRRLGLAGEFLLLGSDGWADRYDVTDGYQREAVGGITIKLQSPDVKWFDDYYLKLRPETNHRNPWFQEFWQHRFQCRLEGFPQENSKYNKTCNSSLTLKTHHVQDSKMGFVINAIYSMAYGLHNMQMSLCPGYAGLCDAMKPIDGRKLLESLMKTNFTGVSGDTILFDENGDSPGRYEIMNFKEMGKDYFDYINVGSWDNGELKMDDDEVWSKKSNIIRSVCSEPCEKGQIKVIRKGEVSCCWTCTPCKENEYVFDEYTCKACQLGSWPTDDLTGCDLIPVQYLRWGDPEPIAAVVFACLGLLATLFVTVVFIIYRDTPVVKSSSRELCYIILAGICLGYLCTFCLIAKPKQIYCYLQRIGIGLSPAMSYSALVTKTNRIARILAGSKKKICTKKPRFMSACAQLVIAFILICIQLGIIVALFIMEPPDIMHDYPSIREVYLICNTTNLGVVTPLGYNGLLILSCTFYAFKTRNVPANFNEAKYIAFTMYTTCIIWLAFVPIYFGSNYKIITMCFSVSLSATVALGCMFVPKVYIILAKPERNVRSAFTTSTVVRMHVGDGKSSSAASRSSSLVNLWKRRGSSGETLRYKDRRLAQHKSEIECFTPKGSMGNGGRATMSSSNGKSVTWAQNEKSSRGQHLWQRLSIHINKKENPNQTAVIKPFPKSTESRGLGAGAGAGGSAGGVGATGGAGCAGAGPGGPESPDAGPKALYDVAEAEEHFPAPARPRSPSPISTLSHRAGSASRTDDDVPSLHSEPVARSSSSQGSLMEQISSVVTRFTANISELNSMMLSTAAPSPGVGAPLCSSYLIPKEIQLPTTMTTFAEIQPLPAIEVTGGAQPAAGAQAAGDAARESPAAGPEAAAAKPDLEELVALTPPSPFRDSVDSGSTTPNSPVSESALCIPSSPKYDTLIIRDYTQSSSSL
The experiment in a line: positive modulation of mGluR5, calcium based FLIPR assay. The note with it: EC50 of the modulation; HEK 293 cell line expressing human recombinant mGluR5; peak height of Ca fluorescence signal after glutamate at approx. 5% basal stimulation; read-out: EC50. Format: cell-based. A digest of the protocol: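 HEK 293 cells expressing human recombinant mGluR5, tetracycline-free before assay, loaded with Calcium-4 dye in Ringer solution pH 7.4. Compounds (1% DMSO final) added for 5 min, then glutamate at about 5% of maximal effect; FLIPR peak Ca signal scaled between 1% DMSO (100%) and 10 μM CDPPB (200%) controls, EC50 by nonlinear regression.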
As for `Nc1nnc(C2CCN(C(=O)Cn3nc(-c4ccc(F)cc4)nc3-c3ccc(F)cc3)CC2)o1` [Example 7.02.45.], the concentration for a half-maximal effect (EC50) came out at 1000 nM. For the compound `CCc1nc(-c2ccc(OC(F)F)cc2)nn1CC(=O)N1CCc2nc(C)sc2CC1` [Example 7.03.126], the EC50 came to 201 nM. In the case of `O=C(Cn1nc(-c2ccc(F)cc2)nc1-c1ccc(F)cc1)N1CCN(c2ncnc3sccc23)CC1` [Example 7.02.74.], the half-maximal effective concentration (EC50) worked out at 798 nM. On to `O=C(Cn1nc(-c2ccc(F)cc2)nc1-c1ccc(F)cc1)N1CCC(c2noc3ccccc23)CC1` [Example 7.02.01., 1-(4-Benzo[d]isoxazol-3-yl-piperidin-1-yl)-2-(3,5-bis-(4-fluoro-phenyl)-(1,2,4)triazol-1-yl)-ethanone], for which the 50% effective concentration (EC50) is 178 nM. As for `O=C(Cn1nc(-c2ccc(F)cc2)nc1-c1ccc(F)cc1)N1CCN(c2ccccc2)C(=O)C1` [Example 7.03.010.], the EC50 was 734 nM. For the compound `CCCCCc1nc(-c2ccc(F)c(C)c2)nn1CC(=O)N1CCc2nc(C)sc2CC1` [Example 7.03.110.], the EC50 came to 55 nM. Take `Cc1nc2c(s1)CCN(C(=O)Cn1nc(-c3ccc(F)c(C)c3)nc1C1CCCC(C)C1)CC2` (stereo not shown) [Example 7.03.096.]: the EC50 came to 355 nM. For `Cc1cc(-c2nc(-c3ccccc3)n(CC(=O)N3CCc4cc(-c5ccccc5)nnc4CC3)n2)ccc1F` [Example 7.02.82.], the half-maximal effective concentration (EC50) is 149 nM. With `CC1CN(c2ccccn2)CCN1C(=O)Cn1nc(-c2ccc(F)cc2)nc1-c1ccc(F)cc1` (stereo not shown) [Example 7.03.014.] the figure was 626 nM; with `Cc1nnc(N2CCN(C(=O)Cn3nc(-c4ccc(F)cc4)nc3-c3ccc(F)cc3)CC2)o1` [Example 7.03.045.], 155 nM; with `O=C(Cn1nc(-c2ccc(F)cc2)nc1-c1ccc(F)cc1)N1CCC(C(O)c2ccccc2)CC1` (stereo not shown) [Example 7.03.004.], 1060 nM.

For `CC(C)c1ncc2c(n1)CCN(C(=O)Cn1nc(-c3ccc(F)cc3)nc1-c1ccc(F)cc1)C2` [Example 7.02.70.], the EC50 amounted to 376 nM. With `COc1ccc2c(c1)CCN(C(=O)Cn1nc(-c3ccc(F)c(C)c3)nc1-c1ccccc1)CC2` [Example 7.02.91.], the EC50 is 107 nM. As to `COc1ccc(-c2nc(-c3ccc(F)cc3)nn2CC(=O)N2CCc3nc(N)sc3CC2)cc1` [Example 7.03.057.], the EC50 came out at 187 nM.

As to `Cc1nc2c(s1)CC(C)N(C(=O)Cn1nc(-c3ccc(F)c(C)c3)nc1-c1ccccc1)CC2` (stereo not shown) [Example 7.02.81.], the half-maximal effective concentration (EC50) was determined as 175 nM.

`C=CCNC(=O)Nc1nc2c(s1)CN(C(=O)Cn1nc(-c3ccc(F)cc3)nc1-c1ccc(F)cc1)CC2` [Example 7.02.29.]: the EC50 came to 504 nM. Then `Cc1cc(-c2nc(-c3ccccc3)n(CC(=O)N3CCc4ccc(N)cc4CC3)n2)ccc1F` [Example 7.02.88.], with 180 nM; and `Cc1cc(-c2nc(C3CCCCC3)n(CC(=O)N3CCc4nc(N)sc4CC3)n2)ccc1F` [Example 7.03.061.], with 369 nM. Then `O=C(Cn1nc(-c2ccc(F)cc2)nc1-c1ccc(F)cc1)N1CCN(c2nccs2)C(=O)C1` [Example 7.01.02.], with 118 nM; and `Cc1nc2c(s1)CN(C(=O)Cn1nc(-c3ccc(F)c(C)c3)nc1C1CCC(C)CC1)C2` (stereo not shown) [Example 7.03.091.], with 1680 nM. With `COc1ccc2c(n1)CCN(C(=O)Cn1nc(-c3ccc(F)cc3)nc1-c1ccc(F)cc1)CC2` [Example 7.03.023.] the figure was 186 nM. Consider `O=C(Cn1nc(-c2ccc(F)cc2)nc1-c1ccc(F)cc1)N1CC=C(c2ccccc2)CC1` [Example 7.02.66.], for which the EC50 was 559 nM. For `Cc1nc2c(s1)CN(C(=O)Cn1nc(-c3ccc(F)c(C)c3)nc1-c1ccccc1)CC2` [Example 7.02.84.], the EC50 stood at 115 nM.

Turning to `CCC(C)c1nc(-c2ccc(F)c(C)c2)nn1CC(=O)N1CCc2nc(C)sc2CC1` (stereo not shown) [Example 7.03.086.], the half-maximal effective concentration (EC50) turned out to be 379 nM.

Take `CCCCc1nc(-c2ccc(F)c(C)c2)nn1CC(=O)N1CCN(c2cccc(OC)c2)C(=O)C1` [Example 7.03.100.]: the EC50 amounted to 302 nM. Then `O=C(Cn1nc(-c2ccc(F)cc2)nc1-c1ccc(F)cc1)N1CCc2cc(C(F)(F)F)ccc2C1` [Example 7.02.09.], with 992 nM; and `Cc1cc(-c2nc(-c3ccccc3)n(CC(=O)N3CCc4nc(N)sc4C3)n2)ccc1F` [Example 7.02.78.], with 274 nM; and `O=C(Cn1nc(-c2ccc(F)cc2)nc1-c1ccc(F)cc1)N1CCc2nc(-c3ccccc3)ncc2C1` [Example 7.03.002.], with 708 nM. With `O=C(Cn1nc(-c2ccc(F)cc2)nc1-c1ccc(F)cc1)N1CCN(C2=NCCS2)CC1` [Example 7.03.046.] the figure was 356 nM.

Consider `CC(=O)Nc1nc2c(s1)CCN(C(=O)Cn1nc(-c3ccc(F)c(C)c3)nc1-c1ccccc1)CC2` [Example 7.02.77.], for which the 50% effective concentration (EC50) was 232 nM.

Turning to `Cc1cc(-c2nc(-c3ccc(F)c(C)c3)n(CC(=O)N3CCc4nc(N)sc4CC3)n2)ccc1F` [Example 7.03.083.], the EC50 amounted to 64 nM. With `COc1nc2c(s1)CCN(C(=O)Cn1nc(-c3ccc(F)c(C)c3)nc1-c1ccccc1)CC2` [Example 7.02.85.] the figure was 33 nM; with `O=C(Cn1nc(-c2ccc(F)cc2)nc1-c1ccc(F)cc1)N1CCc2ccc(Cl)nc2CC1` [Example 7.03.028.], 117 nM; with `O=C(Cn1nc(-c2ccc(F)cc2)nc1-c1ccc(F)cc1)N1CCC(c2ncco2)CC1` [Example 7.03.038.], 75 nM.

`Nc1nc2c(o1)CCN(C(=O)Cn1nc(-c3ccc(F)cc3)nc1-c1ccc(F)cc1)CC2` [Example 7.03.019.]: the EC50 is 439 nM. Then `Cc1nc2c(s1)CCN(C(=O)Cn1nc(-c3ccc(F)c(C)c3)nc1C)CC2` [Example 7.03.087.], with 647 nM; and `Cc1nc2c(s1)CCN(C(=O)Cn1nc(-c3ccc(F)c(C)c3)nc1C1CCCCC1C)CC2` (stereo not shown) [Example 7.03.093.], with 433 nM; and `O=C(Cn1nc(-c2ccc(F)cc2)nc1-c1ccc(F)cc1)N1CCc2cccc(F)c2C1` [Example 7.02.10.], with 965 nM. For `Cc1cc(-c2nc(CC(C)C)n(CC(=O)N3CCc4nc(N)sc4CC3)n2)ccc1F` [Example 7.03.099.], the EC50 worked out at 269 nM.

For the compound `Cc1nc2c(o1)CCN(C(=O)Cn1nc(-c3ccc(F)cc3)nc1-c1ccc(F)cc1)CC2` [Example 7.03.122.], the concentration giving a half-maximal response (EC50) turned out to be 57 nM. With `Cc1nc2c(s1)CN(C(=O)Cn1nc(-c3ccc(F)cc3)nc1-c1ccc(F)cc1)CC2` [Example 7.02.56.], the EC50 stood at 932 nM. With `Cc1nc2c(s1)CCN(C(=O)Cn1nc(-c3ccc(F)cn3)nc1-c1ccc(F)cc1)CC2` [Example 7.03.116.] the figure was 392 nM; with `Nc1nc2c(s1)CN(C(=O)Cn1nc(-c3ccc(F)cc3)nc1-c1ccc(F)cc1)CC2` [Example 7.02.42.], 1240 nM. In the case of `COc1nc2c(s1)CCN(C(=O)Cn1nc(-c3ccc(F)cc3)nc1-c1ccc(F)cc1)CC2` [Example 7.03.039.], the EC50 was determined as 50 nM. Take `O=C(Cn1nc(-c2ccc(F)cc2)nc1-c1ccc(F)cc1)N1CCC(OCC2CC2)CC1` [Example 7.02.06.]: the concentration giving a half-maximal response (EC50) was found to be 1400 nM. With `Cc1nc2c(s1)CCN(C(=O)Cn1nc(-c3ccc(F)c(C)c3)nc1C1CCCC1)CC2` [Example 7.03.107.] the figure was 63 nM. Then `Cc1nc2c(o1)CN(C(=O)Cn1nc(-c3ccc(F)cc3)nc1-c1ccc(F)cc1)CC2` [Example 7.02.54.], with 206 nM; and `Nc1nc2c(s1)CCN(C(=O)Cn1nc(-c3ccc(F)cc3)nc1-c1ccc(F)cc1)CC2` [Example 7.03.001., 1-(2-Amino-4,5,7,8-tetrahydro-thiazolo[4,5-d]azepin-6-yl)-2-(3,5-bis-(4-fluoro-phenyl)-(1,2,4)triazol-1-yl)-ethanone], with 164 nM; and `CCCc1nc(-c2ccc(F)c(C)c2)nn1CC(=O)N1CCc2nc(N)sc2CC1` [Example 7.03.072.], with 407 nM. Take `Cc1nc2c(s1)CCN(C(=O)Cn1nc(-c3ccc(F)c(C)c3)nc1-c1ccc(F)c(C)c1)CC2` [Example 7.03.084.]: the half-maximal effective concentration (EC50) was determined as 52 nM. For the compound `COc1cc2c(cc1OC)CCN(C(=O)Cn1nc(-c3ccc(F)c(C)c3)nc1-c1ccccc1)CC2` [Example 7.02.90.], the EC50 turned out to be 155 nM. As for `COc1ccc(-c2nc(-c3ccccc3)n(CC(=O)N3CCc4nc(C)oc4C3)n2)cc1` [Example 7.03.052.], the concentration giving a half-maximal response (EC50) turned out to be 323 nM. Then `O=C(Cn1nc(-c2ccc(F)cc2)nc1-c1ccc(F)cc1)N1Cc2cccnc2C1` [Example 7.03.020.], with 626 nM; and `O=C(Cn1nc(-c2ccc(F)cc2)nc1-c1ccc(F)cc1)N1CC=C(c2ncccn2)CC1` [Example 7.03.022.], with 56 nM; and `CC(C)c1nnc(C2CCN(C(=O)Cn3nc(-c4ccc(F)cc4)nc3-c3ccc(F)cc3)CC2)o1` [Example 7.03.033.], with 474 nM. Then `O=C(Cn1nc(-c2ccc(F)cc2)nc1-c1ccc(F)cc1)N1CC=C(c2ncco2)CC1` [Example 7.03.040.], with 54 nM; and `Nc1nc2c(s1)CCN(C(=O)Cn1nc(-c3ccc(F)cn3)nc1-c1ccc(F)cc1)CC2` [Example 7.03.115.], with 231 nM. Take `O=C(Cn1nc(-c2ccc(F)cc2)nc1-c1ccc(F)cc1)N1CCc2cc(O)ccc2C1` [Example 7.02.53.]: the EC50 came out at 229 nM. With `Cc1nc2c(s1)CCN(C(=O)Cn1nc(-c3ccc(F)c(C)c3)nc1CC(C)C)CC2` [Example 7.03.098.] the figure was 226 nM; with `Cc1nc(C2CCN(C(=O)Cn3nc(-c4ccc(F)cc4)nc3-c3ccc(F)cc3)CC2)oc1C` [Example 7.03.003.], 851 nM. With `Cc1nc2c(o1)CN(C(=O)Cn1nc(-c3ccc(OC(F)F)cc3)nc1-c1ccccc1)C2` [Example 7.03.129], the 50% effective concentration (EC50) came out at 27 nM.
